# Data as given in patent publication US8716440B2, “Method of liberating and recovering peptide” (Sysmex Corporation, priority 2011, dated 2014).
# Residues, ends and D or L forms follow the SMILES beside them.
# Columns and labels:
# [1] = target: T1, bovine serum albumin (BSA) (Bos taurus, UniProt P02769); experiment: Fluorescence titration method, Kd between BSA and peptide; assay type: binding
# T1 construct: purchased Sigma-Aldrich Japan Inc
# Source text: FITC-SA21 (Biologica Co, Ltd.) in which SA21 consisting of 18 amino acids was labeled with fluorescein isothiocyanate (FITC) (a green fluorescent dye) was used as a peptide. The SA21 is an acidic peptide. The used albumin was BSA (Sigma-Aldrich Japan Inc.).
# [2] = target: T2, human serum albumin (HSA) (Homo sapiens, UniProt P02768); experiment: Fluorescence titration method, Kd between HSA and peptide; assay type: binding; conditions: solution in ultrapure water: ACTH partial peptide 34 μM, TMR-ACTH partial peptide 6 μM, HSA 600 μM
# T2 construct: purchased Sigma-Aldrich Japan Inc
# T2 sequence (P02768 25-609): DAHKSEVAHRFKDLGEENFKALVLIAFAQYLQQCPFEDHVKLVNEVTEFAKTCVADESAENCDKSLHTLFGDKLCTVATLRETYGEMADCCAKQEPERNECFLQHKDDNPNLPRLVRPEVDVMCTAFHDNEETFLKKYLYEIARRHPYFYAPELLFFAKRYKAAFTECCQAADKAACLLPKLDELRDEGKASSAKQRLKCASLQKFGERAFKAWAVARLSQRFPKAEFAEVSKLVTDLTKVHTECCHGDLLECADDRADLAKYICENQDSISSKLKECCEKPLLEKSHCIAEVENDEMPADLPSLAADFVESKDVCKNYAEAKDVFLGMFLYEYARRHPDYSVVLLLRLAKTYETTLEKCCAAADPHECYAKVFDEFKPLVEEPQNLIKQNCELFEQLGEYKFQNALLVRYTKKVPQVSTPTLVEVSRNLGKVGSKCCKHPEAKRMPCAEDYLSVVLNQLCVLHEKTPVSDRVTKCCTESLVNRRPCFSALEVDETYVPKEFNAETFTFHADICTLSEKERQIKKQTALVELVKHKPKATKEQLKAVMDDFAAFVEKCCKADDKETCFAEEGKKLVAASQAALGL
# Source text: The ACTH is a basic peptide. The used albumin was human serum albumin (HSA, Sigma-Aldrich Japan Inc.).
# T1 sequence (P02769 25-607): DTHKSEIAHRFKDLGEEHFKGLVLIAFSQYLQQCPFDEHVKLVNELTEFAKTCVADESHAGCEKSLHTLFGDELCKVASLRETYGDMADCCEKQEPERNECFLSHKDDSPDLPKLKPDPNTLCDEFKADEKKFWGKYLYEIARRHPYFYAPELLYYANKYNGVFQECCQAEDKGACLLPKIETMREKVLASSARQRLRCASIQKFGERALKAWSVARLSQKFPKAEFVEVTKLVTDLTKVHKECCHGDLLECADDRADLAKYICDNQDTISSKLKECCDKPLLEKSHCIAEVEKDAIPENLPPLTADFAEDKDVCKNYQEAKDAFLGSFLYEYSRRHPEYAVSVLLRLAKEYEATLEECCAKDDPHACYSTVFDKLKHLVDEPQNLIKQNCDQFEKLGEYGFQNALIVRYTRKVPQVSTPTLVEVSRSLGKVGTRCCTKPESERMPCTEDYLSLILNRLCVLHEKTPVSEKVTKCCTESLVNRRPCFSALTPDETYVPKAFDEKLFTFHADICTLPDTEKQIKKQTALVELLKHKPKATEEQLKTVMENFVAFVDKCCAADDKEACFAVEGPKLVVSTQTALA
SMILES,"Kd ([1]; fluorescence titration, read-out: Kd value between the BSA and FITC-SA21) [µM]","fraction of FITC-SA21 forming a complex with albumin ([1]; solution in ultrapure water: FITC-SA21 43 (M, BSA 100 (M)), printed as complex with the HSA) [%]",affinity of binding to BSA relative to affinity of binding between the HSA and ACTH partial peptide ([1]; times stronger than HSA/ACTH partial peptide binding) [times],fraction of peptide forming a complex with the HSA [2] [%]
"CC[C@H](C)[C@H](NC(=O)[C@H](CC(C)C)NC(=O)[C@H](CCCNC(=N)N)NC(=S)Nc1ccc2c(c1)C(=O)OC21c2ccc(O)cc2Oc2cc(O)ccc21)C(=O)N[C@@H](CCC(=O)O)C(=O)N[C@@H](CC(=O)O)C(=O)N[C@H](C(=O)N[C@H]1CSSC[C@@H](C(=O)N[C@@H](CC(C)C)C(=O)N[C@@H](Cc2c[nH]c3ccccc23)C(=O)N[C@@H](CCC(=O)O)C(=O)N[C@@H](CC(=O)O)C(=O)N[C@@H](CC(=O)O)C(N)=O)NC(=O)CNC(=O)[C@H](Cc2c[nH]c3ccccc23)NC(=O)[C@H](CCCNC(=N)N)NC(=O)[C@@H]2CCCN2C(=O)[C@H](CC(C)C)NC1=O)[C@@H](C)CC [FITC-SA21] (HELM PEPTIDE1{[O=C1OC2(c3ccc(O)cc3Oc3cc(O)ccc32)c2ccc(NC(=S)[*:2])cc21].R.L.I.E.D.I.C.L.P.R.W.G.C.L.W.E.D.D.[am]}$PEPTIDE1,PEPTIDE1,8:R3-14:R3$$$V2.0; N-terminus and C-terminus assumed)",≤ 1,98.3,6,
CSCC[C@H](NC(=O)[C@H](CO)NC(=O)[C@H](Cc1ccc(O)cc1)NC(=O)[C@H](CO)NC(=O)c1ccc2c(c1)C(=O)OC21c2ccc(N(C)C)cc2Oc2cc(N(C)C)ccc21)C(=O)N[C@@H](CCC(=O)O)C(=O)N[C@@H](Cc1c[nH]cn1)C(=O)N[C@@H](Cc1ccccc1)C(=O)N[C@@H](CCCNC(=N)N)C(=O)N[C@@H](Cc1c[nH]c2ccccc12)C(=O)NCC(=O)N[C@@H](CCCCN)C(=O)N1CCC[C@H]1C(=O)N[C@H](C(=O)NCC(=O)N[C@@H](CCCCN)C(=O)N[C@@H](CCCCN)C(=O)N[C@@H](CCCNC(=N)N)C(=O)N[C@@H](CCCNC(=N)N)C(=O)N1CCC[C@H]1C(=O)N[C@H](C(=O)N[C@@H](CCCCN)C(=O)N[C@H](C(=O)N[C@@H](Cc1ccc(O)cc1)C(=O)N1CCC[C@H]1C(=O)O)C(C)C)C(C)C)C(C)C [TMR-ACTH partial peptide],,,,98.9
